The numbers were not newly measured in the PKSmart pharmacokinetics tables (Seal et al. 2025), which cites them from elsewhere.

The data set can be described thus: not given per row; by the article one of three: Lombardo et al. 2013, J Clin Pharmacol 53:178, doi 10.1177/0091270012440282; 'New Drugs at FDA', novel drug approvals for 2021 and 2022 (the article's reference 43); Yap, Li, Chen 2006, J Mol Graph Model 24:383, doi 10.1016. Particulars: human; for clearance / Vd / half-life: in vivo; for fraction unbound: plasma.

A word on the clearance: it is the volume of plasma or blood freed of the substance per unit of time. In the case of `OC[C@H]1CC[C@@H](n2cnc3c(O)ncnc32)O1`, the clearance is 15.2 mL/min/kg.

`COC(=O)C1[C@H](OC(=O)c2ccccc2)CC2CC[C@@H]1N2C` (some centres undefined): the clearance is 32 mL/min/kg.

As to `CC(C(=O)O)c1ccc2oc(-c3ccc(Cl)cc3)nc2c1` (centres undefined), the clearance was 0.07 mL/min/kg.

Turning to `CC/C(=C(/c1ccccc1)c1ccc(OCCN(C)C)cc1)c1ccccc1`, the clearance was 1.4 mL/min/kg.

Turning to `CC(C)(C)NC[C@@H](O)COc1cccc2c1C[C@H](O)[C@@H](O)C2`, the clearance was 2.94 mL/min/kg.

Consider `C=C1C[C@@H]2C(CC[C@]3(C)C(=O)CC[C@@H]23)[C@]2(C)C=CC(=O)C=C12` (some centres undefined), for which the clearance was 145 mL/min/kg.

`C[C@H](NCCC(c1ccccc1)c1ccccc1)c1ccccc1`: the clearance was 20 mL/min/kg.

With `COc1cc2c(cc1OC)CN(C(=O)C(C)NC(CCc1ccccc1)C(=O)O)C(C(=O)O)C2` (centres undefined), the clearance was 3.31 mL/min/kg.

On to `CC1(C)S[C@H]2C(NC(=O)C(NC(=O)N3CCN(S(C)(=O)=O)C3=O)c3ccccc3)C(=O)N2C1C(=O)O` (some centres undefined), for which the clearance was 2.71 mL/min/kg.

Turning to `COCc1c(-c2ccc(F)cc2)c(=CC[C@H](O)C[C@H](O)CC(=O)O)c(C(C)C)nc1=C(C)C`, the clearance was 2.98 mL/min/kg.

Consider `CCC1=C(C)CN(C(=O)NCCc2ccc(S(=O)(=O)NC(=O)NC3CCC(C)CC3)cc2)C1=O` (centres undefined), for which the clearance was 0.76 mL/min/kg.

For `COCC(=O)Nc1c(I)c(C(=O)NC[C@H](O)CO)c(I)c(C(=O)N(C)C[C@H](O)CO)c1I`, the clearance is 1.53 mL/min/kg.

As for `CC[C@H](OC(C)=O)C(C[C@@H](C)N(C)C)(c1ccccc1)c1ccccc1`, the clearance was 4.09 mL/min/kg.

Regarding `CC(NC(CCc1ccccc1)C(=O)O)C(=O)N1C(C(=O)O)C[C@@H]2CCCC[C@@H]21` (some centres undefined), the clearance was 1.67 mL/min/kg.

For the compound `C[C@H](O)C1C(=O)N2C(C(=O)[O-])=C(SC3Cn4cnc[n+]4C3)[C@@H](C)[C@@H]12` (some centres undefined), the clearance was 2.77 mL/min/kg.

As a reminder, the Vd is the apparent volume that relates the amount in the body to the concentration in plasma or blood. One may read the half-life as the time needed for the level to fall by half in the phase considered. What is called fraction unbound is free concentration divided by total concentration. In the case of `O=C(O)CCC(NC(=O)NC(CCCCNC(=O)C(Cc1ccc2ccccc2c1)NC(=O)C1CCC(CNC(=O)CN2CCN(CC(=O)O)CCN(CC(=O)O)CCN(CC(=O)O)CC2)CC1)C(=O)O)C(=O)O` (centres undefined), the volume of distribution (Vd) is 2.05 L/kg, the clearance was 0.567 mL/min/kg, the half-life is 41.6 h and the fraction unbound was 0.35.

Turning to `CC(C)N(CC[C@@](C(N)=O)(c1ccccc1)c1ccccn1)C(C)C`, the clearance is 2.7 mL/min/kg.

As for `CON=C(C(=O)NC1C(=O)N2C(C(=O)O)=CCS[C@H]12)c1csc(=N)[nH]1` (some centres undefined), the clearance was 1.79 mL/min/kg.

Turning to `COCc1c(C(=O)OC(C)C)ncc2[nH]c3ccc(OCc4ccccc4)cc3c12`, the clearance is 13 mL/min/kg.

As for `C=C/C=C/C[C@@H](C)[C@@H](O)C1C(=O)NC(CC)C(=O)N(C)CC(=O)N(C)C(CC(C)C)C(=O)NC(C(C)C)C(=O)N(C)C(CC(C)C)C(=O)NC(C)C(=O)NC(C)C(=O)N(C)C(CC(C)C)C(=O)N(C)C(CC(C)C)C(=O)N(C)C(C(C)C)C(=O)N1C` (some centres undefined), the Vd was 35.9 L/kg, the clearance was 17.7 mL/min/kg, the half-life is 30 h and the fraction unbound was 0.03.

With `Cc1ncc([N+](=O)[O-])n1C[C@@H](C)O`, the clearance was 0.4 mL/min/kg.

Turning to `C[C@@H]1CCC[C@@H](C)N1CCC[C@@](O)(c1ccccc1)c1ccccn1`, the clearance is 2.34 mL/min/kg.

As for `C[C@@H](O)C1C(=O)N2C(C(=O)O)=C(S[C@H]3CNC(C(=O)Nc4cccc(C(=O)O)c4)C3)[C@H](C)[C@@H]12` (some centres undefined), the clearance is 0.4 mL/min/kg.

As to `CCCC[C@@H]1CC(=O)[C@]2(O)O[C@H]3[C@@H](NC)[C@@H](O)[C@@H](NC)[C@H](O)[C@@H]3O[C@@H]2O1`, the clearance is 1.9 mL/min/kg.

Consider `COc1cccc2c1C(=O)c1c(O)c3c(c(O)c1C2=O)C[C@](O)(C(=O)CO)C[C@@H]3O[C@@H]1C[C@H](N)[C@@H](O)[C@H](C)O1`, for which the clearance was 16.5 mL/min/kg.

As to `CC(C)(C)NC[C@@H](O)COc1cccc2c1SCCC2`, the clearance is 1.86 mL/min/kg.

As to `O=[P@@]1(N(CCCl)CCCl)NCCCO1`, the clearance was 2.54 mL/min/kg.

For `CC(CO)(CO)NCc1cc2c3ccccc3ccc2c2ccccc12`, the clearance was 8.44 mL/min/kg.

For the compound `CC(C(=O)O)c1ccc(-c2ccccc2)c(F)c1` (centres undefined), the clearance was 0.35 mL/min/kg.

As for `CN(C)CCOc1ccc(/C(=C(\CCCl)c2ccccc2)c2ccccc2)cc1`, the clearance is 1.21 mL/min/kg.

With `COCCCOc1ccnc(C[S@@+](O)c2nc3ccccc3[n-]2)c1C`, the clearance was 6 mL/min/kg.

Take `CN1CCN(c2c(F)cc3c(=O)c(C(=O)O)cn4c3c2SCC4)CC1`: the clearance was 0.57 mL/min/kg.

Regarding `Nc1nc(=O)c2c([nH]1)N[C@@H]1O[C@@H]3COP(=O)(O)O[C@@H]3C(O)(O)[C@@H]1N2`, the Vd was 0.3 L/kg, the clearance is 3.02 mL/min/kg and the half-life was 1.45 h.

As to `OCCOCCN1CCN(C2=Nc3ccccc3Sc3ccccc32)CC1`, the clearance is 19.1 mL/min/kg.

With `Nc1ccn(C[C@H](CO)OCP(=O)(O)O)c(=O)n1`, the clearance is 2.3 mL/min/kg.

With `CCOC(=O)NC1=C(N2CC2)C(=O)C(NC(=O)OCC)=C(N2CC2)C1=O`, the clearance was 11 mL/min/kg.

With `CNCC[C@H](Oc1ccccc1C)c1ccccc1`, the clearance is 3.63 mL/min/kg.

Turning to `CCOCCn1c(N2CCCN(C)CC2)nc2ccccc21`, the clearance was 12.5 mL/min/kg.

`C[C@H]1CO[C@@H]2Cn3cc(C(=O)NCc4ccc(F)cc4F)c(=O)c(O)c3C(=O)N12`: the fraction unbound was 0.48.

Turning to `CC12CCC(=O)C=C1C1CC1C1C2CCC2(C)C1C1CC1C21CCC(=O)O1` (centres undefined), the half-life was 34 h and the fraction unbound is 0.04.

Regarding `COc1c(N2CCN[C@@H](C)C2)c(F)cc2c(=O)c(C(=O)O)cn(C3CC3)c12`, the clearance was 2.85 mL/min/kg.

In the case of `COc1ccc(OC)c(Cc2cnc3nc(N)nc(N)c3c2C)c1`, the clearance was 2.21 mL/min/kg.

Regarding `N=C=N`, the clearance was 20 mL/min/kg.

`CC[C@]1(C)CC(=O)NC1=O`: the clearance was 0.19 mL/min/kg.

In the case of `O=C1CN2Cc3c(ccc(Cl)c3Cl)N=C2N1`, the clearance was 2.14 mL/min/kg.

As for `O=[P@@]1(NCCCl)OCCCN1CCCl`, the clearance was 1.23 mL/min/kg.

As for `CN1CCN(/C=C2/N=C3CN=C(c4ccccc4Cl)c4cc([N+](=O)[O-])ccc4N3C2=O)CC1`, the clearance was 5.09 mL/min/kg.

`CCOC(=O)NNc1ccc(N(CC)C[C@@H](C)O)nn1`: the clearance is 3.79 mL/min/kg.

For the compound `CON=C(C(=O)NC1C(=O)N2C(C(=O)[O-])C(=C[N+]34CCC(C(N)=O)(CC3)CC4)CSC12)c1nsc(N)n1` (centres undefined), the Vd is 0.27 L/kg and the clearance was 1.7 mL/min/kg.
